Measured values from US6914045B2, “Glycopeptide antibiotics” (Wyeth Holdings Corporation, priority 2001, dated 2005).
Numbered stars: 1 amine (or outer) side, 2 acyl side, 3 side chain; on linkers, the order of the positions; unused ones are H or OH. Square brackets hold non-standard residues; d marks the D form. Peptide text beside a SMILES is read from it. * marks the point of attachment. ξ: configuration not given here. X6 = N=C1NCC(CC(N[*:1])C(=O)[*:2])N1C1OC(CO)C(O)C(O)C1O; ξEnduracididine(βξ-OH,4'ξ) = N=C1NCC(C(O)C(N)C(=O)O)N1; X2 = OCC1OC(OC2C(CO)OC(*)C(O)C2O)C(O)C(O)C1O; ξPhe(βξ-Me) = CC(c1ccccc1)C(N)C(=O)O

How the values were obtained:
Assay in all cases: in vitro antibacterial evaluation, MIC by broth dilution
Format in all cases: cell-based
Streptococcus sp. = settings: broth dilution, 18 hours at 35° C.; for MIC Streptococcus pneumoniae (ATCC 6301): strain ATCC 6301; for MIC Streptococcus pneumoniae (GC 1894): strain GC 1894; for MIC Streptococcus pyogenes (GC 4563): strain GC 4563; for MIC Streptococcus agalactiae (GC 4564): strain GC 4564; for MIC Streptococcus pneumoniae (GC 4565): strain GC 4565
Summary of the method: (§1)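 Inoculum 5×10^5 CFU/mL; concentrations 64 to 0.06 μg/mL; MIC defined as lowest inhibitory level. Conducted by broth dilution under NCCLS guidelines.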

Escherichia coli = settings: 18 hours at 35° C.
Summary of the method: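 Test organisms, which included recent clinical isolates resistant to methicillin, penicillin and/or vancomycin, were inoculated at 5×10^5 CFU/mL into Muller-Hinton II […] containing antibiotic at 64-0.06 μg/mL. Minimum inhibitory concentrations were then read as the lowest level inhibiting growth.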

Staphylococcus sp. = settings: broth dilution, 18 hours at 35° C.
Summary of the method: as §1

Enterococcus sp. = settings: broth dilution, 18 hours at 35° C.; for MIC Enterococcus faecalis (GC 2242): strain GC 2242; for MIC Enterococcus faecalis (GC 2691): strain GC 2691; for MIC Enterococcus faecalis (GC 3059): strain GC 3059; for MIC Enterococcus faecalis (GC 4552): strain GC 4552
Summary of the method: as §1

[1] = Enterococcus faecalis (ATCC 29212)
[2] = Enterococcus faecalis (GC 4553)
[3] = Enterococcus faecalis (GC 4554)
[4] = Enterococcus faecalis (GC 6189)

CC(c1ccccc1)C1NC(=O)CNC(=O)C(CO)NC(=O)C(C(O)C2CNC(=N)N2C2OC(CO)C(O)C(O)C2O)NC(=O)C(C(O)C2CNC(=N)N2)NC(=O)C(Cc2ccc(OC3OC(CO)C(OC4OC(CO)C(O)C(O)C4O)C(O)C3O)c(N)c2)NC1=O (stereo not drawn) [Example 287, Cyclo[glycyl-β-methylphenylalanyl-2-amino-O-(4-O-hexopyranosylhexopyranosyl)tyrosyl-3-(2-iminoimidazolidin-4-yl)seryl-3-(3-hexopyranosyl-2-iminoimidazolidin-4-yl)serylseryl]]
64 µg/mL: MIC Streptococcus pneumoniae (ATCC 6301) (Streptococcus sp.) | MIC Streptococcus pneumoniae (GC 1894) (Streptococcus sp.) | MIC Streptococcus pneumoniae (GC 4565) (Streptococcus sp.) | MIC Enterococcus avium (GC 4558) (Enterococcus sp.; Enterococcus avium (GC 4558)) | MIC Enterococcus faecium (GC 4557) (Enterococcus sp.; Enterococcus faecium (GC 4557)) | MIC Enterococcus faecium (GC 4557) (Enterococcus sp.; strain GC 4557) | MIC Enterococcus avium (GC 4558) (Enterococcus sp.; strain GC 4558)
>64 µg/mL: MIC Streptococcus pyogenes (GC 4563) (Streptococcus sp.) | MIC Streptococcus agalactiae (GC 4564) (Streptococcus sp.) | MIC Escherichia coli (ATCC 25922) (Escherichia coli) | MIC Escherichia coli (GC 4559) (Escherichia coli) | MIC Escherichia coli (GC 4560) (Escherichia coli) | MIC Coagulase Negative Staphylococcus (GC 4547) (Staphylococcus sp.) | MIC Coagulase Negative Staphylococcus (GC 4548) (Staphylococcus sp.) | MIC Coagulase Negative Staphylococcus (GC 4549) (Staphylococcus sp.) | MIC Coagulase Negative Staphylococcus (GC 4551) (Staphylococcus sp.) | MIC Coagulase Negative Staphylococcus (GC 6257) (Staphylococcus sp.) | MIC Staphylococcus aureus (ATCC 29213) (Staphylococcus sp.) | MIC Staphylococcus aureus (GC 1131) (Staphylococcus sp.) | MIC Staphylococcus aureus (GC 3051) (Staphylococcus sp.) | MIC Staphylococcus aureus (GC 3053) (Staphylococcus sp.) | MIC Staphylococcus aureus (GC 4541) (Staphylococcus sp.) | MIC Staphylococcus aureus (GC 4542) (Staphylococcus sp.) | MIC Staphylococcus aureus (GC 4544) (Staphylococcus sp.) | MIC Staphylococcus aureus (GC 4545) (Staphylococcus sp.) | MIC Staphylococcus aureus-SMITH (GC 4543) (Staphylococcus sp.) | MIC Staphylococcus haemolyticus (GC 4546) (Staphylococcus sp.) | MIC Staphylococcus aureus (ATCC 29213) (Staphylococcus sp.; strain ATCC 29213) | MIC Staphylococcus aureus (GC 1131) (Staphylococcus sp.; strain GC 1131) | MIC Staphylococcus aureus (GC 3051) (Staphylococcus sp.; strain GC 3051) | MIC Staphylococcus aureus (GC 3053) (Staphylococcus sp.; strain GC 3053) | MIC Staphylococcus aureus (GC 4541) (Staphylococcus sp.; strain GC 4541) | MIC Staphylococcus aureus (GC 4542) (Staphylococcus sp.; strain GC 4542) | MIC Staphylococcus aureus (GC 4544) (Staphylococcus sp.; strain GC 4544) | MIC Staphylococcus aureus (GC 4545) (Staphylococcus sp.; strain GC 4545) | MIC Staphylococcus haemolyticus (GC 4546) (Staphylococcus sp.; strain GC 4546) | MIC Coagulase Negative Staphylococcus (GC 4547) (Staphylococcus sp.; strain GC 4547) | MIC Coagulase Negative Staphylococcus (GC 4548) (Staphylococcus sp.; strain GC 4548) | MIC Coagulase Negative Staphylococcus (GC 4549) (Staphylococcus sp.; strain GC 4549) | MIC Coagulase Negative Staphylococcus (GC 4551) (Staphylococcus sp.; strain GC 4551) | MIC Coagulase Negative Staphylococcus (GC 6257) (Staphylococcus sp.; strain GC 6257) | MIC Staphylococcus aureus-SMITH (GC 4543) (Staphylococcus sp.; strain SMITH GC 4543) | MIC Enterococcus faecalis (ATCC 29212) (Enterococcus sp.; [1]) | MIC Enterococcus faecalis (GC 4553) (Enterococcus sp.; [2]) | MIC Enterococcus faecalis (GC 4554) (Enterococcus sp.; [3]) | MIC Enterococcus faecalis (GC 6189) (Enterococcus sp.; [4]) | MIC Enterococcus faecium (GC 2243) (Enterococcus sp.; Enterococcus faecium (GC 2243)) | MIC Enterococcus faecium (GC 4556) (Enterococcus sp.; Enterococcus faecium (GC 4556)) | MIC Enterococcus faecalis (ATCC 29212) (Enterococcus sp.; strain ATCC 29212) | MIC Enterococcus faecalis (GC 2242) (Enterococcus sp.) | MIC Enterococcus faecium (GC 2243) (Enterococcus sp.; strain GC 2243) | MIC Enterococcus faecalis (GC 2691) (Enterococcus sp.) | MIC Enterococcus faecalis (GC 3059) (Enterococcus sp.) | MIC Enterococcus faecalis (GC 4552) (Enterococcus sp.) | MIC Enterococcus faecalis (GC 4553) (Enterococcus sp.; strain GC 4553) | MIC Enterococcus faecalis (GC 4554) (Enterococcus sp.; strain GC 4554) | MIC Enterococcus faecium (GC 4556) (Enterococcus sp.; strain GC 4556) | MIC Enterococcus faecalis (GC 6189) (Enterococcus sp.; strain GC 6189)

CC(c1ccccc1)C1NC(=O)CNC(=O)C(CO)NC(=O)C(CC2CNC(=N)N2C2OC(CO)C(O)C(O)C2O)NC(=O)C(C(O)C2CNC(=N)N2)NC(=O)C(Cc2ccc(OC3OC(CO)C(OC4OC(CO)C(O)C(O)C4O)C(O)C3O)cc2)NC1=O (stereo not drawn) [Example 284b, Cyclo[3-(3-hexopyranosyl-2-iminoimidazolidin-4-yl)-alanylserylglycl-β-methylphenylalanyl-O-(4-O-hexopyranosylhexopyranosyl)tyrosyl-3-(2-iminoimidazolidin-4-yl)seryl]] (cyclo(G[ξPhe(βξ-Me)]Y(X2)[ξEnduracididine(βξ-OH,4'ξ)][X6]S); configuration not given here)
128 µg/mL: MIC Streptococcus pneumoniae (GC 1894) (Streptococcus sp.) | MIC Enterococcus avium (GC 4558) (Enterococcus sp.; Enterococcus avium (GC 4558)) | MIC Enterococcus faecium (GC 4557) (Enterococcus sp.; Enterococcus faecium (GC 4557)) | MIC Enterococcus faecium (GC 4557) (Enterococcus sp.; strain GC 4557) | MIC Enterococcus avium (GC 4558) (Enterococcus sp.; strain GC 4558)
>128 µg/mL: MIC Streptococcus pneumoniae (ATCC 6301) (Streptococcus sp.) | MIC Streptococcus pyogenes (GC 4563) (Streptococcus sp.) | MIC Streptococcus agalactiae (GC 4564) (Streptococcus sp.) | MIC Streptococcus pneumoniae (GC 4565) (Streptococcus sp.) | MIC Escherichia coli (ATCC 25922) (Escherichia coli) | MIC Escherichia coli (GC 4559) (Escherichia coli) | MIC Escherichia coli (GC 4560) (Escherichia coli) | MIC Coagulase Negative Staphylococcus (GC 4547) (Staphylococcus sp.) | MIC Coagulase Negative Staphylococcus (GC 4548) (Staphylococcus sp.) | MIC Coagulase Negative Staphylococcus (GC 4549) (Staphylococcus sp.) | MIC Coagulase Negative Staphylococcus (GC 4551) (Staphylococcus sp.) | MIC Staphylococcus aureus (ATCC 29213) (Staphylococcus sp.) | MIC Staphylococcus aureus (GC 1131) (Staphylococcus sp.) | MIC Staphylococcus aureus (GC 3051) (Staphylococcus sp.) | MIC Staphylococcus aureus (GC 3053) (Staphylococcus sp.) | MIC Staphylococcus aureus (GC 4541) (Staphylococcus sp.) | MIC Staphylococcus aureus (GC 4542) (Staphylococcus sp.) | MIC Staphylococcus aureus (GC 4544) (Staphylococcus sp.) | MIC Staphylococcus aureus (GC 4545) (Staphylococcus sp.) | MIC Staphylococcus aureus-SMITH (GC 4543) (Staphylococcus sp.) | MIC Staphylococcus haemolyticus (GC 4546) (Staphylococcus sp.) | MIC Staphylococcus aureus (ATCC 29213) (Staphylococcus sp.; strain ATCC 29213) | MIC Staphylococcus aureus (GC 1131) (Staphylococcus sp.; strain GC 1131) | MIC Staphylococcus aureus (GC 3051) (Staphylococcus sp.; strain GC 3051) | MIC Staphylococcus aureus (GC 3053) (Staphylococcus sp.; strain GC 3053) | MIC Staphylococcus aureus (GC 4541) (Staphylococcus sp.; strain GC 4541) | MIC Staphylococcus aureus (GC 4542) (Staphylococcus sp.; strain GC 4542) | MIC Staphylococcus aureus (GC 4544) (Staphylococcus sp.; strain GC 4544) | MIC Staphylococcus aureus (GC 4545) (Staphylococcus sp.; strain GC 4545) | MIC Staphylococcus haemolyticus (GC 4546) (Staphylococcus sp.; strain GC 4546) | MIC Coagulase Negative Staphylococcus (GC 4547) (Staphylococcus sp.; strain GC 4547) | MIC Coagulase Negative Staphylococcus (GC 4548) (Staphylococcus sp.; strain GC 4548) | MIC Coagulase Negative Staphylococcus (GC 4549) (Staphylococcus sp.; strain GC 4549) | MIC Coagulase Negative Staphylococcus (GC 4551) (Staphylococcus sp.; strain GC 4551) | MIC Staphylococcus aureus-SMITH (GC 4543) (Staphylococcus sp.; strain SMITH GC 4543) | MIC Enterococcus faecalis (ATCC 29212) (Enterococcus sp.; [1]) | MIC Enterococcus faecalis (GC 4553) (Enterococcus sp.; [2]) | MIC Enterococcus faecalis (GC 4554) (Enterococcus sp.; [3]) | MIC Enterococcus faecalis (GC 6189) (Enterococcus sp.; [4]) | MIC Enterococcus faecium (GC 2243) (Enterococcus sp.; Enterococcus faecium (GC 2243)) | MIC Enterococcus faecium (GC 4556) (Enterococcus sp.; Enterococcus faecium (GC 4556)) | MIC Enterococcus faecalis (ATCC 29212) (Enterococcus sp.; strain ATCC 29212) | MIC Enterococcus faecalis (GC 2242) (Enterococcus sp.) | MIC Enterococcus faecium (GC 2243) (Enterococcus sp.; strain GC 2243) | MIC Enterococcus faecalis (GC 2691) (Enterococcus sp.) | MIC Enterococcus faecalis (GC 3059) (Enterococcus sp.) | MIC Enterococcus faecalis (GC 4552) (Enterococcus sp.) | MIC Enterococcus faecalis (GC 4553) (Enterococcus sp.; strain GC 4553) | MIC Enterococcus faecalis (GC 4554) (Enterococcus sp.; strain GC 4554) | MIC Enterococcus faecium (GC 4556) (Enterococcus sp.; strain GC 4556) | MIC Enterococcus faecalis (GC 6189) (Enterococcus sp.; strain GC 6189)
